The text below walks through data of patent US8624027B2, “Combination therapy for treating cancer and diagnostic assays for use therein” (AbbVie Inc., priority 2005, dated 2014).

The target of data set [1] is T1, Bcl-2 protein (Homo sapiens, UniProt P10415, DELINS35-91DVEENRTEAPEGTESE, form not given).
T1 construct: fused on or other part: A short piece of the Bcl-xL (Q07817) loop replaces Bcl-2 loop residues 35-91; The C-terminal membrane anchor is absent
The data set can be described thus: Bcl-2 binding affinity, fluorescence polarization with fluorescein-labeled BAX peptide. Conditions: Wang's equation, read-out: Target Binding Affinity Ki (Bcl-2).

Data set [2] addresses Bcl-XL protein (Homo sapiens, UniProt Q07817). Nature of the data set: Bcl-XL binding affinity, fluorescence polarization with fluorescein-labeled BAD peptide. Particulars: Wang's equation, read-out: Target Binding Affinity Ki (Bcl-XL).
Method: A mixture comprising 125 μL per well of assay buffer (20 mM phosphate buffer (pH 7.4), 1 mM EDTA, 50 mM NaCl, 0.05% PF-68), 6 nM of Bcl-XL protein (prepared as described in Science 1997, 275, 983-986), 1 nM fluorescein-labeled BAD peptide (prepared in-house) and the DMSO solution of the compound was shaken for 2 minutes and placed in a LJL Analyst (LJL Bio Systems, CA). A negative control (DMSO, 15 nM BAD peptide, assay buffer) and a positive control (DMSO, 1 nM BAD peptide, 6 nM Bcl-XL, assay buffer) were used to determine the range of the assay. Polarization was measured at room temperature using a continuous Fluorescein lamp (excitation 485 nm, emission 530 nm). Percentage of inhibition was determined by (1-((mP value of well-negative control)/range))×100%.
Ki values shown in the tables below were determined using Wang's equation (Wang Z X., An Exact Mathematical Expression For Describing Competitive Binding Of Two Different Ligands To A Protein Molecule. FEBS Lett. 1995; 360:111-4)).
Data set [3] has as its system NCI-H146 human small cell lung carcinoma cells. The data set can be described thus: Cellular efficacy in human tumor cell line (MTS viability assay). Particulars: NCI-H146, 10% human serum, 48 hours. It counts as cell-based. In outline:
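Cells plated at 50,000/well in medium with 10% human serum in place of FBS. Treated with 2-fold serial dilutions from 10 μM to 0.020 μM, in duplicate, at least 3 separate runs. Viable cells measured by MTS after 48 h of compound exposure.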

The nature of data set [4]: Pharmacokinetic evaluation in rat. It counts as in vivo. Particulars: male, Sprague-Dawley, plasma; for AUC(0-inf): single 5 mg/kg oral dose, Table 1, read-out: Pharmacokinetic area under the plasma concentration Curve (rat) AUC0-∞. In outline:
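Male Sprague-Dawley rats (n=3/group) received a single 2 mg/kg IV (jugular slow bolus) or 5 mg/kg oral gavage dose in 10% DMSO/PEG-400; tail-vein plasma sampled to 24 h. Acetonitrile-precipitated plasma quantified by LC-MS/MS (LOQ 0.01 μg/mL); AUC0-∞ by linear trapezoidal rule plus Ct/β extrapolation.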

Where [5] appears, read: Table 1, read-out: NCI-H146 Cellular Efficacy EC50.

pEC50, pKi: −log10 of the molar value. Like-named read-outs stand apart in the source and are kept apart here.

T1 sequence (P10415 with tags, fused parts or gaps with the stated changes): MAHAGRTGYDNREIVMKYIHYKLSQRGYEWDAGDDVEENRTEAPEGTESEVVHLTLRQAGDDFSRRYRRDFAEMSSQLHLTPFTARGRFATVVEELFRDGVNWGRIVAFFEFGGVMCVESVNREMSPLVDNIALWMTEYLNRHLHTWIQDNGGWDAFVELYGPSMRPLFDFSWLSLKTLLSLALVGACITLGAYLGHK
Chain of Bcl-XL protein (Q07817 with tags, fused parts or gaps DEL45-84): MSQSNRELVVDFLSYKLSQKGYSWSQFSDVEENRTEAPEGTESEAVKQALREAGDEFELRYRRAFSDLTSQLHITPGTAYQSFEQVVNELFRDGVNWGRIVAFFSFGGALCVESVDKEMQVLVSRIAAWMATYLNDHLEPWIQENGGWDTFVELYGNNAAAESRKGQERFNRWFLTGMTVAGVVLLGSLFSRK

Regarding `CC(C)N(C)CC[C@H](CSc1ccccc1)Nc1ccc(S(=O)(=O)NC(=O)c2ccc(N3CCN(CC4=C(c5ccc(Cl)cc5)CC(C)(C)CC4)CC3)cc2)cc1S(=O)(=O)C(F)(F)Cl` [Example 22, 3-((chloro(difluoro)methyl)sulfonyl)-N-(4-(4-((2-(4-chlorophenyl)-4,4-dimethylcyclohex-1-en-1-yl)methyl)piperazin-1-yl)benzoyl)-4-(((1R)-3-(isopropyl(methyl)amino)-1-((phenylsulfanyl)methyl)propyl)amino)benzenesulfonamide], the pKi in data set [1] and in data set [2] was not below 9.00 in each case. Also, the pEC50 in data set [3] (setting [5]) is 7.41. Also, the AUC(0-inf) in data set [4] came to 4.08 µM·h.

For `CC(C)N(C)CC[C@H](CSc1ccccc1)Nc1ccc(S(=O)(=O)NC(=O)c2ccc(N3CCN(CC4=C(c5ccc(Cl)cc5)CCC(C)(C)C4)CC3)cc2)cc1S(=O)(=O)C(F)(F)Cl` [Example 23, 3-((chloro(difluoro)methyl)sulfonyl)-N-(4-(4-((2-(4-chlorophenyl)-5,5-dimethylcyclohex-1-en-1-yl)methyl)piperazin-1-yl)benzoyl)-4-(((1R)-3-(isopropyl(methyl)amino)-1-((phenylsulfanyl)methyl)propyl)amino)benzenesulfonamide], the pKi in data set [1] and in data set [2] was not below 9.00 each time. In addition, in data set [3] (setting [5]), the pEC50 is 7.28. Also, in data set [4], the AUC(0-inf) came to 3.54 µM·h.

Consider `CC1(C)CCC(CN2CCN(c3ccc(C(=O)NS(=O)(=O)c4ccc(N[C@H](CCN5CCOCC5)CSc5ccccc5)c(S(=O)(=O)C(F)(F)F)c4)cc3)CC2)=C(c2ccc(Cl)cc2)C1` [Example 24, N-(4-(4-((2-(4-chlorophenyl)-4,4-dimethylcyclohex-1-en-1-yl)methyl)piperazin-1-yl)benzoyl)-4-(((1R)-3-(morpholin-4-yl)-1-((phenylsulfanyl)methyl)propyl)amino)-3-((trifluoromethyl)sulfonyl)benzenesulfonamide], for which the pKi in data set [1] and in data set [2] was not below 9.00 in each case. In addition, the pEC50 in data set [3] (setting [5]) is 7.35. Moreover, in data set [4], the AUC(0-inf) amounted to 8.04 µM·h.

In the case of `CC1(C)CCC(CN2CCN(c3ccc(C(=O)NS(=O)(=O)c4ccc(N[C@H](CCN5C[C@@H]6C[C@H]5CO6)CSc5ccccc5)c(S(=O)(=O)C(F)(F)Cl)c4)cc3)CC2)=C(c2ccc(Cl)cc2)C1` [Example 25, 3-((chloro(difluoro)methyl)sulfonyl)-N-(4-(4-((2-(4-chlorophenyl)-4,4-dimethylcyclohex-1-en-1-yl)methyl)piperazin-1-yl)benzoyl)-4-(((1R)-3-((1S,4S)-2-oxa-5-azabicyclo[2.2.1]hept-5-yl)-1-((phenylsulfanyl)methyl)propyl)amino)benzenesulfonamide], the negative logarithm of the Ki (pKi) in data set [1] and in data set [2] was not below 9.00 in each case. Moreover, in data set [3] (setting [5]), the negative-log EC50 (pEC50) is 7.79. In addition, the AUC(0-inf) in data set [4] was determined as 1.67 µM·h.

For the molecule `CN(C)CC[C@H](CSc1ccccc1)Nc1ccc(S(=O)(=O)NC(=O)c2ccc(N3CCN(CC4=C(c5ccc(Cl)cc5)CCCC4)CC3)cc2)cc1S(=O)(=O)C(F)(F)F` [Example 26, N-(4-(4-((2-(4-chlorophenyl)cyclohex-1-en-1-yl)methyl)piperazin-1-yl)benzoyl)-4-(((1R)-3-(dimethylamino)-1-((phenylsulfanyl)methyl)propyl)amino)-3-((trifluoromethyl)sulfonyl)benzenesulfonamide], the pKi in data set [1] and in data set [2] was not below 9.00 throughout. The pEC50 in data set [3] (setting [5]) was 7.61; in data set [3] (Table 3, read-out: NCI-H146 Cellular Efficacy H146 EC50), 7.62. In data set [4] (5 mg/kg, oral, Table 3, read-out: Pharmacokinetic area under the plasma concentration Curve (rat) AUC), the AUC amounted to 0.803 µM·h. For the same molecule, in data set [4] (5 mg/kg, oral, Table 3, read-out: Pharmacokinetic peak plasma concentration (rat) Cmax), the Cmax was determined as 97 nM. Further, the AUC(0-inf) in data set [4] came out at 0.8 µM·h.

`O=C(NS(=O)(=O)c1ccc(N[C@H](CCN2CCCC2)CSc2ccccc2)c(S(=O)(=O)C(F)(F)F)c1)c1ccc(N2CCN(CC3=C(c4ccc(Cl)cc4)CCCC3)CC2)cc1` [Example 27, N-(4-(4-((2-(4-chlorophenyl)cyclohex-1-en-1-yl)methyl)piperazin-1-yl)benzoyl)-4-(((1R)-1-((phenylsulfanyl)methyl)-3-(pyrrolidin-1-yl)propyl)amino)-3-((trifluoromethyl)sulfonyl)benzenesulfonamide]: the pKi in data set [1] and in data set [2] was not below 9.00 each time. In addition, the pEC50 in data set [3] (setting [5]) was 7.73. The AUC(0-inf) in data set [4] came to 2.08 µM·h.

Take `O=C(NS(=O)(=O)c1ccc(N[C@H](CCN2CCCC2)CSc2ccccc2)c(S(=O)(=O)C(F)(F)F)c1)c1ccc(N2CCN(CC3=C(c4ccc(Cl)cc4)CCCCC3)CC2)cc1` [Example 29, N-(4-(4-((2-(4-chlorophenyl)cyclohept-1-en-1-yl)methyl)piperazin-1-yl)benzoyl)-4-(((1R)-1-((phenylsulfanyl)methyl)-3-(pyrrolidin-1-yl)propyl)amino)-3-((trifluoromethyl)sulfonyl)benzenesulfonamide]: the pKi in data set [1] and in data set [2] was not below 9.00 throughout. Moreover, in data set [3] (setting [5]), the pEC50 was 7.53. Also, the AUC(0-inf) in data set [4] was found to be 1.74 µM·h.

As for `CC1(C)CCC(c2ccc(Cl)cc2)=C(CN2CCN(c3ccc(C(=O)NS(=O)(=O)c4ccc(N[C@H](CCN5CCCC5)CSc5ccccc5)c(S(=O)(=O)C(F)(F)Cl)c4)cc3)CC2)C1` [Example 30, 3-((chloro(difluoro)methyl)sulfonyl)-N-(4-(4-((2-(4-chlorophenyl)-5,5-dimethylcyclohex-1-en-1-yl)methyl)piperazin-1-yl)benzoyl)-4-(((1R)-1-((phenylsulfanyl)methyl)-3-(pyrrolidin-1-yl)propyl)amino)benzenesulfonamide], the pKi in data set [1] and in data set [2] was not below 9.00 in each case. Moreover, the pEC50 in data set [3] (setting [5]) was 7.50. In addition, the AUC(0-inf) in data set [4] was found to be 3.39 µM·h.

Consider `CC1(C)CCC(CN2CCN(c3ccc(C(=O)NS(=O)(=O)c4ccc(N[C@H](CCN5CCCC5)CSc5ccccc5)c(S(=O)(=O)C(F)(F)Cl)c4)cc3)CC2)=C(c2ccc(Cl)cc2)C1` [Example 31, 3-((chloro(difluoro)methyl)sulfonyl)-N-(4-(4-((2-(4-chlorophenyl)-4,4-dimethylcyclohex-1-en-1-yl)methyl)piperazin-1-yl)benzoyl)-4-(((1R)-1-((phenylsulfanyl)methyl)-3-(pyrrolidin-1-yl)propyl)amino)benzenesulfonamide], for which the pKi in data set [1] and in data set [2] was not below 9.00 each time. Moreover, the pEC50 in data set [3] (setting [5]) was 7.89. The AUC(0-inf) in data set [4] was found to be 5.1 µM·h.

On to `O=C(NS(=O)(=O)c1ccc(N[C@H](CCN2CCCC2)CSc2ccccc2)c(S(=O)(=O)C(F)(F)Cl)c1)c1ccc(N2CCN(CC3=C(c4ccc(Cl)cc4)CCCCC3)CC2)cc1` [Example 32, 3-((chloro(difluoro)methyl)sulfonyl)-N-(4-(4-((2-(4-chlorophenyl)cyclohept-1-en-1-yl)methyl)piperazin-1-yl)benzoyl)-4-(((1R)-1-((phenylsulfanyl)methyl)-3-(pyrrolidin-1-yl)propyl)amino)benzenesulfonamide], for which the pKi in data set [1] and in data set [2] was not below 9.00 each time. For the same molecule, in data set [3] (setting [5]), the pEC50 was 7.73. In addition, in data set [4], the AUC(0-inf) came out at 1.38 µM·h.
